PMC6099232, “High V‐PPase activity is beneficial under high salt loads, but detrimental without salinity” (The New Phytologist, 2018)

How the values were obtained:
[1] = target: T1, NbVHP2 (Nicotiana benthamiana, UniProt A0A238MN04); test: whole-vacuole patch clamp, PPi-induced proton pump current; type: biochemical; settings: 150 μM PPi, 0 mV; 5 mM MgCl2, 100 mM K-gluconate, 0.1 mM CaCl2, pH 7.5; endogenous NbVHP background
T1 construct: gene NbPPA1.1; full-length cDNA, untagged, ubiquitin promoter in pCambia2200 with separate free eGFP; transient overexpression in N. benthamiana mesophyll; vacuoles also hold endogenous NbVHP1/2
T1 sequence (A0A238MN04 1-766): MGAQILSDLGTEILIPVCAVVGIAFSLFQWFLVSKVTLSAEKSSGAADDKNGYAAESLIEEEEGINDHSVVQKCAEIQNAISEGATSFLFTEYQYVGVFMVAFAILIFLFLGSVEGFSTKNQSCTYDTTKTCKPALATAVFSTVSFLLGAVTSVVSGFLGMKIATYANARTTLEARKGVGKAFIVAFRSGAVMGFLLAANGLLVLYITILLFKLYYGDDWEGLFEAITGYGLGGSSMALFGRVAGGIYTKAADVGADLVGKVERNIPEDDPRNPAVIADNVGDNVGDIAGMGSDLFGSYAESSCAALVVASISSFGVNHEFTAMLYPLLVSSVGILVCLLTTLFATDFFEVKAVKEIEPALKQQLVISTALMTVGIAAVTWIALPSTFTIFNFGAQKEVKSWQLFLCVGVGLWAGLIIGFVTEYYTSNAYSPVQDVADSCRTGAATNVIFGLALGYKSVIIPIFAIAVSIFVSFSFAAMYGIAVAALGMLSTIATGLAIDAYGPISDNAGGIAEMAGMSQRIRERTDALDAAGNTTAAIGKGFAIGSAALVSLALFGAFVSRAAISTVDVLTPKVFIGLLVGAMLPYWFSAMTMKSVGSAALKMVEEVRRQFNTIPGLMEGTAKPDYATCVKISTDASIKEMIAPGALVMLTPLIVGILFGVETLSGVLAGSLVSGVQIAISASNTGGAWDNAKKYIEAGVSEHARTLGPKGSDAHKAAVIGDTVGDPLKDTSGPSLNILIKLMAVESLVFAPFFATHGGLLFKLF

[2] = target: T2, IPP1 (Saccharomyces cerevisiae, UniProt P00817); test: PPi hydrolysis activity of leaf protein extract; type: biochemical; settings: activity compared with control
T2 construct: soluble PPase, cDNA under ubiquitin promoter in pCambia2200, transiently overexpressed in N. benthamiana leaves
T2 sequence (P00817 2-287): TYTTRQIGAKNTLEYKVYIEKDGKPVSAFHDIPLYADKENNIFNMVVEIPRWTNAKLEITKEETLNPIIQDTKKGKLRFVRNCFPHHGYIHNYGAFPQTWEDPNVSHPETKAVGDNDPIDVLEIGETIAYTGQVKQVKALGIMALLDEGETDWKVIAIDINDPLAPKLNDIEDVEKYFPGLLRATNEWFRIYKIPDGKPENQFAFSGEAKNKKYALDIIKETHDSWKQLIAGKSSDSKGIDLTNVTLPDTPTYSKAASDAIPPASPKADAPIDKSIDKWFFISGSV

[3] = substrate: O=P(O)(O)OP(=O)(O)O; test: whole-vacuole patch clamp, PPi-induced proton pump current; type: biochemical, Nicotiana benthamiana; settings: 0 mV, cytosolic pH 7.5, global fit of luminal pH 7.5 and 5.5, 5 mM MgCl2, 100 mM K-gluconate, 0.1 mM CaCl2, endogenous NbVHP background
[4] = substrate: O=P(O)(O)OP(=O)(O)O; test: as above; type: biochemical, Arabidopsis thaliana; settings: 0 mV, 5 mM MgCl2, 100 mM K-gluconate, 0.1 mM CaCl2, pH 7.5, about one-third of current from endogenous NbVHP1/2

O=P(O)(O)OP(=O)(O)O [PPi, pyrophosphate]
whole-vacuole patch clamp, PPi-induced proton pump current [1]: almost four times higher in vacuoles from NbVHP1‐ or NbVHP2‐overexpressing mesophyll cells
PPi hydrolysis activity of leaf protein extract [2]: IPP1‐transformed N. benthamiana leaves exhibited a hydrolytic PPi activity

B1: NbVHP1 (Nicotiana benthamiana) (protein)
chain: MGAALLPDLGTEIVIPVCAVIGIVFSLVQWYIVSNVKLTPESSSPSNNGKNGYGDYLIEEEEGINDQNVVVKCAEIQNAISEGATSFLFTEYQYVGIFMIAFAILIFLFLGSVEGFSTKSQPCTYNKEKLCKPALATAIFSTVSFLLGAITSVVSGFLGMKVATYANARTTLEARKGVGKAFIVAFRSGAVMGFLLAANGLLVLYIAINLFKLYYGDDWEGLFEAITGYGLGGSSMALFGRVGGGIYTKAADVGADLVGKVERNIPEDDPRNPAVIADNVGDNVGDIAGMGSDLFGSYAEASCAALVVASISSFGINHEFTAMLYPLLISSMGVLICLITTLFATDFFEIKAVKEIEPALKNQLIISTALMTVGIAIVTWTCLPSSFTIFNFGAQKVVKNWQLFLCVAVGLWAGLIIGFVTEYYTSNTYSPVQDVADSCRTGAATNVIFGLALGYKSVIIPIFAIAIAIFVSFSFAAMYGIAVAALGMLSTIATGLAIDAYGPISDNAGGIAEMAGMSHRIRERTDALDAAGNTTAAIGKGFAIGSAALVSLALFGAFVSRAAITTVDVLTPQVFIGLIVGAMLPYWFSAMTMKSVGSAALKMVEEVRRQFNTIPGLMEGTAKPDYATCVKISTDASIKEMIPPGALVMLTPLIVGIFFGVETLSGVLAGALVSGVQIAISASNTGGAWDNAKKYIEAGASEHARTLGPKGSEPHKAAVIGDTIGDPLKDTSGPSLNILIKLMAVESLVFAPFFATHGGLLFKIF
notes: full-length cDNA, untagged, ubiquitin promoter in pCambia2200 with separate free eGFP; transient overexpression in N. benthamiana mesophyll; vacuoles also hold endogenous NbVHP1/2; homodimer of c; 80 kDa polypeptide
Km [3]: 65 ± 9 µM

B2: AtVHP1 (Arabidopsis thaliana) (protein)
chain: MVAPALLPELWTEILVPICAVIGIAFSLFQWYVVSRVKLTSDLGASSSGGANNGKNGYGDYLIEEEEGVNDQSVVAKCAEIQTAISEGATSFLFTEYKYVGVFMIFFAAVIFVFLGSVEGFSTDNKPCTYDTTRTCKPALATAAFSTIAFVLGAVTSVLSGFLGMKIATYANARTTLEARKGVGKAFIVAFRSGAVMGFLLAASGLLVLYITINVFKIYYGDDWEGLFEAITGYGLGGSSMALFGRVGGGIYTKAADVGADLVGKIERNIPEDDPRNPAVIADNVGDNVGDIAGMGSDLFGSYAEASCAALVVASISSFGINHDFTAMCYPLLISSMGILVCLITTLFATDFFEIKLVKEIEPALKNQLIISTVIMTVGIAIVSWVGLPTSFTIFNFGTQKVVKNWQLFLCVCVGLWAGLIIGFVTEYYTSNAYSPVQDVADSCRTGAATNVIFGLALGYKSVIIPIFAIAISIFVSFSFAAMYGVAVAALGMLSTIATGLAIDAYGPISDNAGGIAEMAGMSHRIRERTDALDAAGNTTAAIGKGFAIGSAALVSLALFGAFVSRAGIHTVDVLTPKVIIGLLVGAMLPYWFSAMTMKSVGSAALKMVEEVRRQFNTIPGLMEGTAKPDYATCVKISTDASIKEMIPPGCLVMLTPLIVGFFFGVETLSGVLAGSLVSGVQIAISASNTGGAWDNAKKYIEAGVSEHAKSLGPKGSEPHKAAVIGDTIGDPLKDTSGPSLNILIKLMAVESLVFAPFFATHGGILFKYF
notes: untagged cDNA, ubiquitin promoter in pCambia2200 with separate free eGFP; transient overexpression in N. benthamiana mesophyll; about one-third of the current from endogenous NbVHP1/2
Km [4]: 75 ± 11 µM
